In patent US20250311727A1, “SUBSTITUTED 2-AMINOAZINES AND SALTS THEREOF, AND USE THEREOF AS HERBICIDAL ACTIVE SUBSTANCES” (BAYER AKTIENGESELLSCHAFT, priority 2022, published 2025):

Key:
Type in all cases: in vivo
[1] = system: Amaranthus retroflexus; experiment: Post-emergence herbicidal efficacy at 80 g/ha, AMARE; conditions: rated visually after about 3 weeks vs untreated controls, 100% = plants have died
Outline: (§1)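 Visual damage ratings, 0% (like untreated controls) to 100% (plants dead), were taken about 3 weeks after treatment. Plants were sprayed at the one-leaf stage with WP- or EC-formulated compound in water containing 0.5% additive, 600 l/ha, having been raised in sandy loam in the greenhouse.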

[2] = system: Digitaria sanguinalis; experiment: Pre-emergence herbicide efficacy at 80 g/ha, DIGSA; conditions: scored visually after about 3 weeks vs untreated controls, 100% = plants have died
Outline: (§2)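 Pre-emergence soil-surface spray over freshly sown, soil-covered seeds; WP/EC formulation, 0.5% additive, 600 l/ha water volume. Greenhouse, ~3 wk. Readout: visual % efficacy vs untreated (0% = control-like, 100% = dead).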

[3] = system: Viola tricolor; experiment: Post-emergence herbicidal efficacy at 80 g/ha, VIOTR; conditions: rated visually after about 3 weeks vs untreated controls, 100% = plants have died
Outline: as §1

[4] = system: Alopecurus myosuroides; experiment: Post-emergence herbicidal efficacy at 80 g/ha, ALOMY; conditions: rated visually after about 3 weeks vs untreated controls, 100% = plants have died
Text: (§3) Unwanted plants/weeds: • ABUTH: Abutilon theophrasti • ALOMY: Alopecurus myosuroides • AMARE: Amaranthus retroflexus • DIGSA: Digitaria sanguinalis • ECHCG: Echinochloa crus-galli • KCHSC: Kochia scoparia • LOLRI: Lolium rigidum • MATIN: Matricaria inodora • POAAN: Poa annua • POLCO: Polygonum convolvulus • SETVI: Setaria viridis • STEME: Stellaria media • VERPE: Veronica persica • VIOTR: Viola tricolor A. Post-Emergence Herbicidal Efficacy at 320 g/ha
(§4) Seeds of monocotyledonous and dicotyledonous weeds and crop plants were placed in sandy loam in plastic or organic planting pots, covered with soil and cultivated in a greenhouse under controlled growth conditions. 2 to 3 weeks after sowing, the test plants were treated at the one-leaf stage. The compounds of the invention, formulated in the form of wettable powders (WP) or as emulsion concentrates (EC), were then sprayed onto the green parts of the plants as aqueous suspension or emulsion with addition of 0.5% additive at a water application rate of 600 l/ha (converted). After the test plants had been kept in the greenhouse under optimum growth conditions for about 3 weeks, the activity of the preparations was rated visually in comparison to untreated controls. For example, 100% activity=the plants have died, 0% activity=like control plants.
(§5) Tables B1 to B11 below show the effects of selected compounds of the general formula (I) according to Table 1 on various harmful plants and an application rate corresponding to 80 g/ha, which were obtained by the experimental procedure mentioned above.

[5] = system: Kochia scoparia; experiment: Pre-emergence herbicide efficacy at 320 g/ha, KCHSC; conditions: scored visually after about 3 weeks vs untreated controls, 100% = plants have died
Outline: (§6)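 Visual percent activity versus untreated controls, read about 3 weeks after treatment, where 100% means dead plants and 0% means control-like growth. Compound (WP or EC, 0.5% additive, 600 L/ha water) was sprayed onto the covering soil over freshly sown weed seeds in sandy loam, then kept in a greenhouse.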

[6] = system: Veronica persica; experiment: Post-emergence herbicidal efficacy at 320 g/ha, VERPE; conditions: rated visually after about 3 weeks vs untreated controls, 100% = plants have died
Outline: (§7)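 Visual % activity vs untreated controls, ~3 wk after spraying; 100% = plants dead, 0% = like control. Greenhouse pot plants in sandy loam, treated at one-leaf stage (2–3 wk post-sowing). WP/EC in water + 0.5% additive, 600 L/ha spray volume.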

[7] = system: Setaria viridis; experiment: Pre-emergence herbicide efficacy at 80 g/ha, SETVI
Outline: as §2

[8] = system: Abutilon theophrasti; experiment: Pre-emergence herbicide efficacy at 320 g/ha, ABUTH; conditions: scored visually after about 3 weeks vs untreated controls, 100% = plants have died
Outline: as §6

[9] = system: Alopecurus myosuroides; experiment: Pre-emergence herbicide efficacy at 80 g/ha, ALOMY; conditions: scored visually after about 3 weeks vs untreated controls, 100% = plants have died
Text: as §3
(§8) Seeds of monocotyledonous and dicotyledonous weed plants and crop plants were placed in plastic or organic planting pots and covered with soil. The compounds of the invention, formulated in the form of wettable powders (WP) or as emulsion concentrates (EC), were then applied to the surface of the covering soil as aqueous suspension or emulsion with addition of 0.5% additive at a water application rate equivalent to 600 l/ha. After the treatment, the pots were placed in a greenhouse and kept under good growth conditions for the test plants. After about 3 weeks, the efficacy of the preparations was scored visually in comparison with untreated controls as percentages. For example, 100% activity=the plants have died, 0% activity=like control plants.
(§9) Tables D1 to D12 below show the effects of selected compounds of the general formula (I) according to Table 1 on various harmful plants and an application rate corresponding to 80 g/ha, which were obtained by the experimental procedure mentioned above.

[10] = system: Stellaria media; experiment: Pre-emergence herbicide efficacy at 320 g/ha, STEME; conditions: scored visually after about 3 weeks vs untreated controls, 100% = plants have died
Outline: as §6

[11] = system: Poa annua; experiment: Post-emergence herbicidal efficacy at 320 g/ha, POAAN; conditions: rated visually after about 3 weeks vs untreated controls, 100% = plants have died
Outline: as §7

[12] = system: Amaranthus retroflexus; experiment: Pre-emergence herbicide efficacy at 320 g/ha, AMARE; conditions: scored visually after about 3 weeks vs untreated controls, 100% = plants have died
Outline: as §6

[13] = system: Veronica persica; experiment: Post-emergence herbicidal efficacy at 80 g/ha, VERPE; conditions: rated visually after about 3 weeks vs untreated controls, 100% = plants have died
Outline: as §1

[14] = system: Kochia scoparia; experiment: Post-emergence herbicidal efficacy at 320 g/ha, KCHSC; conditions: rated visually after about 3 weeks vs untreated controls, 100% = plants have died
Outline: as §7

[15] = system: Alopecurus myosuroides; experiment: Pre-emergence herbicide efficacy at 320 g/ha, ALOMY; conditions: scored visually after about 3 weeks vs untreated controls, 100% = plants have died
Text: as §3
Seeds of mono- and dicotyledonous weed plants were placed in plastic pots in sandy loam soil (doubly sown with one species each of mono- or dicotyledonous weed plants per pot) and covered with soil. The compounds of the invention, formulated in the form of wettable powders (WP) or as emulsion concentrates (EC), were then applied to the surface of the covering soil as aqueous suspension or emulsion with addition of 0.5% additive at a water application rate of 600 litres per hectare (converted). After the treatment, the pots were placed in a greenhouse and kept under good growth conditions for the test plants. After about 3 weeks, the efficacy of the preparations was scored visually in comparison with untreated controls as percentages.
(§10) For example, 100% activity=the plants have died, 0% activity=like control plants.
Tables C1 to C12 below show the effects of selected compounds of the general formula (I) according to Table 1 on various harmful plants and at an application rate corresponding to 320 g/ha, which were obtained by the trial procedure specified above.

[16] = system: Echinochloa crus-galli; experiment: Post-emergence herbicidal efficacy at 320 g/ha, ECHCG; conditions: rated visually after about 3 weeks vs untreated controls, 100% = plants have died
Outline: as §7

[17] = system: Digitaria sanguinalis; experiment: Post-emergence herbicidal efficacy at 80 g/ha, DIGSA; conditions: rated visually after about 3 weeks vs untreated controls, 100% = plants have died
Text: as §3, §4, §5

[18] = system: Veronica persica; experiment: Pre-emergence herbicide efficacy at 320 g/ha, VERPE; conditions: scored visually after about 3 weeks vs untreated controls, 100% = plants have died
Outline: as §6

[19] = system: Amaranthus retroflexus; experiment: Post-emergence herbicidal efficacy at 320 g/ha, AMARE; conditions: rated visually after about 3 weeks vs untreated controls, 100% = plants have died
Outline: as §7

[20] = system: Stellaria media; experiment: Post-emergence herbicidal efficacy at 320 g/ha, STEME; conditions: rated visually after about 3 weeks vs untreated controls, 100% = plants have died
Outline: as §7

[21] = system: Echinochloa crus-galli; experiment: Pre-emergence herbicide efficacy at 320 g/ha, ECHCG; conditions: scored visually after about 3 weeks vs untreated controls, 100% = plants have died
Outline: as §6

[22] = system: Digitaria sanguinalis; experiment: Pre-emergence herbicide efficacy at 320 g/ha, DIGSA; conditions: scored visually after about 3 weeks vs untreated controls, 100% = plants have died
Outline: as §6

[23] = system: Alopecurus myosuroides; experiment: Post-emergence herbicidal efficacy at 320 g/ha, ALOMY; conditions: rated visually after about 3 weeks vs untreated controls, 100% = plants have died
Text: as §3
Seeds of mono- and dicotyledonous weed plants were placed in plastic pots in sandy loam soil (doubly sown with in each case one species of mono- or dicotyledonous weed plants per pot), covered with soil and cultivated in a greenhouse under controlled growth conditions. 2 to 3 weeks after sowing, the test plants were treated at the one-leaf stage. The compounds of the invention, formulated in the form of wettable powders (WP) or as emulsion concentrates (EC), were applied to the green parts of the plants as aqueous suspension or emulsion with addition of 0.5% additive at a water application rate equivalent to 600 litres per hectare. After the test plants had been kept in the greenhouse under optimum growth conditions for about 3 weeks, the activity of the preparations was rated visually in comparison to untreated controls.
as §10
Tables A1 to A10 below show the effects of selected compounds of the general formula (I) according to Table 1 on various harmful plants and at an application rate corresponding to 320 g/ha, which were obtained by the trial procedure specified above.

[24] = system: Digitaria sanguinalis; experiment: Post-emergence herbicidal efficacy at 320 g/ha, DIGSA; conditions: rated visually after about 3 weeks vs untreated controls, 100% = plants have died
Outline: as §7

[25] = system: Poa annua; experiment: Pre-emergence herbicide efficacy at 320 g/ha, POAAN; conditions: scored visually after about 3 weeks vs untreated controls, 100% = plants have died
Outline: as §6

[26] = system: Veronica persica; experiment: Pre-emergence herbicide efficacy at 80 g/ha, VERPE
Outline: as §2

[27] = system: Setaria viridis; experiment: Pre-emergence herbicide efficacy at 320 g/ha, SETVI; conditions: scored visually after about 3 weeks vs untreated controls, 100% = plants have died
Outline: as §6

[28] = system: Viola tricolor; experiment: Pre-emergence herbicide efficacy at 80 g/ha, VIOTR
Outline: as §2

[29] = system: Abutilon theophrasti; experiment: Pre-emergence herbicide efficacy at 80 g/ha, ABUTH; conditions: scored visually after about 3 weeks vs untreated controls, 100% = plants have died
Text: as §3, §8, §9

[30] = system: Setaria viridis; experiment: Post-emergence herbicidal efficacy at 320 g/ha, SETVI; conditions: rated visually after about 3 weeks vs untreated controls, 100% = plants have died
Outline: as §7

[31] = system: Polygonum convolvulus; experiment: Pre-emergence herbicide efficacy at 80 g/ha, POLCO; conditions: scored visually after about 3 weeks vs untreated controls, 100% = plants have died
Outline: as §2

[32] = system: Matricaria inodora; experiment: Pre-emergence herbicide efficacy at 320 g/ha, MATIN; conditions: scored visually after about 3 weeks vs untreated controls, 100% = plants have died
Outline: as §6

[33] = system: Amaranthus retroflexus; experiment: Pre-emergence herbicide efficacy at 80 g/ha, AMARE; conditions: scored visually after about 3 weeks vs untreated controls, 100% = plants have died
Outline: as §2

[34] = system: Echinochloa crus-galli; experiment: Pre-emergence herbicide efficacy at 80 g/ha, ECHCG; conditions: scored visually after about 3 weeks vs untreated controls, 100% = plants have died
Outline: as §2

Fc1cnc(Nc2cccc(F)c2-c2cc(C(F)F)no2)nc1 [Example 1-34]
Post-emergence efficacy at 80 g/ha against AMARE in % [1]: 100%
Pre-emergence efficacy at 80 g/ha against DIGSA in % [2]: 100%
Post-emergence efficacy at 80 g/ha against VIOTR in % [3]: 80%
Post-emergence efficacy at 80 g/ha against ALOMY in % [4]: 100%
Pre-emergence efficacy at 320 g/ha against KCHSC in % [5]: 100%
Post-emergence efficacy at 320 g/ha against VERPE in % [6]: 100%
Pre-emergence efficacy against SETVI [7]: 100%
Pre-emergence efficacy at 320 g/ha against ABUTH in % [8]: 100%
Pre-emergence efficacy at 80 g/ha against ALOMY in % [9]: 90%
Pre-emergence efficacy at 320 g/ha against STEME in % [10]: 100%
Post-emergence efficacy at 320 g/ha against POAAN in % [11]: 100%
Pre-emergence efficacy at 320 g/ha against AMARE in % [12]: 100%
Post-emergence efficacy at 80 g/ha against VERPE in % [13]: 100%
Post-emergence efficacy at 320 g/ha against KCHSC in % [14]: 100%
Pre-emergence efficacy at 320 g/ha against ALOMY in % [15]: 100%
Post-emergence efficacy at 320 g/ha against ECHCG in % [16]: 100%
Post-emergence efficacy at 80 g/ha against DIGSA in % [17]: 80%
Pre-emergence efficacy at 320 g/ha against VERPE in % [18]: 100%
Post-emergence efficacy at 320 g/ha against AMARE in % [19]: 100%
Post-emergence efficacy at 320 g/ha against STEME in % [20]: 100%
Pre-emergence efficacy at 320 g/ha against ECHCG in % [21]: 100%
Pre-emergence efficacy at 320 g/ha against DIGSA in % [22]: 100%
Post-emergence efficacy at 320 g/ha against ALOMY in % [23]: 100%
Post-emergence efficacy at 320 g/ha against DIGSA in % [24]: 100%
Pre-emergence efficacy at 320 g/ha against POAAN in % [25]: 100%
Pre-emergence efficacy against VERPE [26]: 100%
Pre-emergence efficacy at 320 g/ha against SETVI in % [27]: 100%
Pre-emergence efficacy against VIOTR [28]: 100%
Pre-emergence efficacy at 80 g/ha against ABUTH in % [29]: 90%
Post-emergence efficacy at 320 g/ha against SETVI in % [30]: 90%
Pre-emergence efficacy at 80 g/ha against POLCO in % [31]: 90%
Pre-emergence efficacy at 320 g/ha against MATIN in % [32]: 100%
Pre-emergence efficacy at 80 g/ha against AMARE in % [33]: 100%
Pre-emergence efficacy at 80 g/ha against ECHCG in % [34]: 90%
